Assay results reported in the NIST ThermoML archive (doi:10.1021/je100687x).

Legend:
[1] = xn = mol fraction of the nth substance listed; conditions: 101 kPa, Liquid; for electrical conductivity: Crison GLP 31+ conductivimeter
[2] = 101 kPa, Liquid; for electrical conductivity: Crison GLP 31+ conductivimeter

CCn1cc[n+](C)c1.F[B-](F)(F)F [1-ethyl-3-methylimidazolium tetrafluoroborate] + CCO
[1]
Conditions | electrical conductivity [S/m] | viscosity [mPa·s]
288.15 K, x2 = 0 | – | 55.5
288.15 K, x2 = 0.0946 | – | 34.76
288.15 K, x2 = 0.1928 | – | 25.25
288.15 K, x2 = 0.2757 | – | 20.25
288.15 K, x2 = 0.3116 | – | 18.17
288.15 K, x2 = 0.3913 | – | 13.68
288.15 K, x2 = 0.4553 | – | 12.47
298.15 K, x2 = 0 | 1.63 | 36.9
298.15 K, x2 = 0.028 | 1.718 | –
298.15 K, x2 = 0.057 | 1.843 | –
298.15 K, x2 = 0.0719 | 1.911 | –
298.15 K, x2 = 0.0946 | – | 24.46
298.15 K, x2 = 0.1034 | 2.061 | –
298.15 K, x2 = 0.1624 | 2.287 | –
298.15 K, x2 = 0.1928 | – | 18.33
298.15 K, x2 = 0.242 | 2.647 | –
298.15 K, x2 = 0.2757 | – | 14.92
298.15 K, x2 = 0.3116 | – | 13.47
298.15 K, x2 = 0.3165 | 2.982 | –
298.15 K, x2 = 0.3892 | 3.228 | –
298.15 K, x2 = 0.3913 | – | 10.3
298.15 K, x2 = 0.4085 | 3.278 | –
298.15 K, x2 = 0.4322 | 3.26 | –
298.15 K, x2 = 0.4511 | 3.47 | –
298.15 K, x2 = 0.4553 | – | 8.445
298.15 K, x2 = 0.4613 | 3.561 | –
308.15 K, x2 = 0 | – | 26
308.15 K, x2 = 0.0946 | – | 18.04
308.15 K, x2 = 0.1928 | – | 13.88
308.15 K, x2 = 0.2757 | – | 11.39
308.15 K, x2 = 0.3116 | – | 10.38
308.15 K, x2 = 0.3913 | – | 8.074
308.15 K, x2 = 0.4553 | – | 6.668
318.15 K, x2 = 0 | – | 19.17
318.15 K, x2 = 0.0946 | – | 13.79
318.15 K, x2 = 0.1928 | – | 10.84
318.15 K, x2 = 0.2757 | – | 8.958
318.15 K, x2 = 0.3116 | – | 8.238
318.15 K, x2 = 0.3913 | – | 6.494
318.15 K, x2 = 0.4553 | – | 5.408

CCO [ethanol] + CCCCCCCC[n+]1ccn(C)c1.F[B-](F)(F)F
Conditions | electrical conductivity [S/m]
[1], 298.15 K, x1 = 1 | 3e-05

CCCCCCn1cc[n+](C)c1.F[B-](F)(F)F [1-hexyl-3-methylimidazolium tetrafluoroborate]
[2]
Conditions | electrical conductivity [S/m] | viscosity [mPa·s]
288.15 K | – | 357.5
298.15 K | 0.126 | 190.9
308.15 K | – | 110.3
318.15 K | – | 68.5

CCn1cc[n+](C)c1.F[B-](F)(F)F [1-ethyl-3-methylimidazolium tetrafluoroborate]
[2]
Conditions | electrical conductivity [S/m] | viscosity [mPa·s]
288.15 K | – | 55.5
298.15 K | 1.63 | 36.9
308.15 K | – | 26
318.15 K | – | 19.17

CCCCCCCC[n+]1ccn(C)c1.F[B-](F)(F)F [1-methyl-3-octylimidazolium tetrafluoroborate]
[2]
Conditions | electrical conductivity [S/m] | viscosity [mPa·s]
288.15 K | – | 686
298.15 K | 0.069 | 337.4
308.15 K | – | 187.7
318.15 K | – | 112.1

CCO [ethanol]
[2]
Conditions | electrical conductivity [S/m] | viscosity [mPa·s]
288.15 K | – | 1.296
298.15 K | 3e-05 | 1.091
308.15 K | – | 0.9153
318.15 K | – | 0.7738

CCCCn1cc[n+](C)c1.F[B-](F)(F)F [1-butyl-3-methylimidazolium tetrafluoroborate]
[2]
Conditions | electrical conductivity [S/m] | viscosity [mPa·s]
288.15 K | – | 173.5
298.15 K | 0.352 | 99.2
308.15 K | – | 61.3
318.15 K | – | 40.4

CCO [ethanol] + CCn1cc[n+](C)c1.F[B-](F)(F)F
[1], x1 = 1
Conditions | viscosity [mPa·s]
288.15 K | 1.296
298.15 K | 1.091
308.15 K | 0.9153
318.15 K | 0.7738
